From patent US12624034B2, “Non-covalent modifiers of AKT1 and uses thereof” (Terremoto Biosciences, Inc., priority 2023, dated 2026) come the findings set out here.

Where two headings read alike, the source gives them in different places. Some results are limits rather than exact numbers.

One test has as its target T1, AKT1 WT (Homo sapiens, UniProt P31749).
T1 construct: expressed in transfected cells; host or cells: HEK293
Nature of the test: Live cell AKT1 WT target engagement by NanoBRET competitive probe displacement in HEK293 cells. The format is binding. The note with it: 2 h at 37° C., read-out: AKT1 WT IC50.

The target of another test is T2, AKT2 (Homo sapiens, UniProt P31751).
T2 construct: expressed in transfected cells; host or cells: HEK293
Briefly: Live cell AKT2 target engagement by NanoBRET competitive probe displacement in HEK293 cells. Type of test: binding. The note with it: 2 h at 37° C., read-out: AKT2 IC50.

[1] abbreviates: NanoBRET live cell target engagement, HEK293 cells.
Setting [2] is: NanoBRET competitive probe displacement, live HEK293 cells.

T2 sequence (P31751 whole entry): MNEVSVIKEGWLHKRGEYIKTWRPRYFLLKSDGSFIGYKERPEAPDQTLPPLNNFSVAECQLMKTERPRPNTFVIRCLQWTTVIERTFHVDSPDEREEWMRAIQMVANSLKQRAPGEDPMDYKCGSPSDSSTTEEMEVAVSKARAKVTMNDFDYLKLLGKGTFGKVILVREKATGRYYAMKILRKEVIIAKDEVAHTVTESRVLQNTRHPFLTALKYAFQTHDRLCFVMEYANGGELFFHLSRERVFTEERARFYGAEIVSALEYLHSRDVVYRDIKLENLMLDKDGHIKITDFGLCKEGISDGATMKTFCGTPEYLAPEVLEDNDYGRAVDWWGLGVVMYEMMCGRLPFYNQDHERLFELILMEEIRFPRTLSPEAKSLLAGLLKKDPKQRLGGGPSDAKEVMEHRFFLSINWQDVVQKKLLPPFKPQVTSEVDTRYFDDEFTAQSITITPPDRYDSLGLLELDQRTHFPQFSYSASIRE
T1 sequence (P31749 whole entry): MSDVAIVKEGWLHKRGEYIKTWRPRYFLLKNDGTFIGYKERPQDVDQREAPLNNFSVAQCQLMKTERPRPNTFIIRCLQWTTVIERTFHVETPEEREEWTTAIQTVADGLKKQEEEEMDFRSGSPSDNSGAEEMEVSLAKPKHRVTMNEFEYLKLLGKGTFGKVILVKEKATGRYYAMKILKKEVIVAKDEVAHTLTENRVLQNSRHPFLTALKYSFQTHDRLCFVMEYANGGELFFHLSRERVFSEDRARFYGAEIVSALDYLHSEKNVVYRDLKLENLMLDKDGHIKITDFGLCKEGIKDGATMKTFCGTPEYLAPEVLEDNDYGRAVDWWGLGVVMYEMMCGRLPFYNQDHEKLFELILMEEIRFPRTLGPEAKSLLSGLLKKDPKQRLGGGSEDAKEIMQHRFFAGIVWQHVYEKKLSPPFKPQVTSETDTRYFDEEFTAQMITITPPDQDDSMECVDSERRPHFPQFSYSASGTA

As for `Nc1ncccc1-c1nc2ccc(-n3cccn3)nc2n1-c1ccc2c(c1)CC[C@@H]2n1cc(-c2ccncc2)nn1` [Compound 198], the IC50 at AKT1 WT (setting [1]) came to 9.5 nM; on AKT2 (setting [1]) it was 113 nM.

On to `Nc1ncccc1-c1nc2ccc(-n3cccn3)nc2n1-c1ccc2c(c1)CC[C@@H]2NC(=O)c1ccn2ccnc2c1` [Compound 255], for which the IC50 at AKT1 WT (setting [1]) was found to be 3.42 nM; at AKT2 (setting [1]), 30.4 nM.

Turning to `Nc1ncccc1-c1nc2ccc(-n3nccn3)nc2n1-c1ccc2c(c1)CC(F)[C@@H]2NC1CCN(C(=O)C2CC2)CC1` (single isomer, unassigned) [Compound 533], the IC50 on AKT1 WT (setting [2]) was more than 1000 nM; at AKT2 (setting [2]) it was 7230 nM.

On to `Cc1csc(-c2ccc3nc(-c4cccnc4N)n(-c4ccc5c(c4)CC[C@@H]5NC(=O)c4ccn(C)n4)c3n2)n1` [Compound 374, (S)—N-(5-(2-(2-aminopyridin-3-yl)-5-(4-methylthiazol-2-yl)-3H-imidazo[4,5-b]pyridin-3-yl)-2,3-dihydro-1H-inden-1-yl)-1-methyl-1H-pyrazole-3-carboxamide], for which the IC50 was 27.8 nM on AKT1 WT (setting [1]) and 389 nM on AKT2 (setting [1]).

For `Cn1nc(C(=O)N[C@H]2CCc3cc(-n4c(-c5cccnc5N)nc5ccc(-n6cccn6)nc54)ccc32)cc1C#N` [Compound 214], the IC50 at AKT1 WT (setting [1]) came to 56.9 nM; at AKT2 (setting [1]) it was 2690 nM.

As for `Nc1ncccc1-c1nc2ccc(-n3cccn3)nc2n1-c1ccc2c(c1)CC[C@@H]2NC(=O)c1ccnc(F)c1` [Compound 295], the figures for the IC50 at AKT1 WT (setting [1]) and on AKT2 (setting [1]) were 5.59 nM and 81.3 nM, respectively.

With `Nc1ncccc1-c1nc2ccc(-c3ccn(C(F)F)n3)nc2n1-c1ccc2c(c1)CC[C@@H]2NC(=O)c1ccc(C(F)(F)F)nc1` [Compound 421], the IC50 came to 3.52 nM on AKT1 WT (setting [2]) and 37.9 nM on AKT2 (setting [2]).

Consider `CS(=O)(=O)c1ccn(-c2ccc3nc(-c4cccnc4N)n(-c4ccc5c(c4)CC[C@@H]5NC4CCN(C(=O)C5CC5)CC4)c3n2)n1` [Compound 554], for which the concentration for half-maximal inhibition (IC50) on AKT1 WT (setting [2]) is 339 nM; on AKT2 (setting [2]) it was 9260 nM.

As for `C#Cc1cc(-n2nccn2)nc2c1nc(-c1cccnc1N)n2-c1ccc2c(c1)CC[C@@H]2NC(=O)c1ccc(C)nc1` [Compound 587], the values for the IC50 at AKT1 WT (setting [2]) and on AKT2 (setting [2]) were 116 nM and 1010 nM, respectively.

With `COC1CCN(c2ccn(-c3ccc4nc(-c5cccnc5N)n(-c5ccc6c(c5)CC(F)[C@@H]6NC5CCN(C(=O)C6CC6)CC5)c4n3)n2)CC1` (some centres unmarked) [Compound 546], the figures for the IC50 on AKT1 WT (setting [2]) and at AKT2 (setting [2]) were 9.86 nM and 221 nM, respectively.

Consider `Nc1ncccc1-c1nc2ccc(-n3ccc(N4CCC4)n3)nc2n1-c1ccc2c(c1)CC[C@@H]2NC1CCN(C(=O)C2CC2)CC1` [Compound 562], for which the figures for the half-maximal inhibitory concentration (IC50) on AKT1 WT (setting [2]) and at AKT2 (setting [2]) were 9.77 nM and 430 nM, respectively.

Take `COc1ncccc1C(=O)N[C@H]1CCc2cc(-n3c(-c4cccnc4N)nc4ccc(-n5cccn5)nc43)ccc21` [Compound 128]: the figures for the IC50 at AKT1 WT (setting [1]) and at AKT2 (setting [1]) were 34.4 nM and 442 nM, respectively.

Consider `Nc1ncccc1-c1nc2ccc(-n3cccn3)nc2n1-c1ccc2c(c1)CC[C@@H]2NC1CCN(C(=O)C2CCC2)CC1` [Compound 422], for which the results for the half-inhibitory concentration (IC50) at AKT1 WT (setting [2]) and at AKT2 (setting [2]) were 67.9 nM and 2080 nM, respectively.

As for `COCc1ccn(-c2ccc3nc(-c4cccnc4N)n(-c4ccc5c(c4)CC[C@@H]5NC4CCN(C(=O)C5CC5)CC4)c3n2)n1` [Compound 590], the 50% inhibitory concentration (IC50) came out at 45.2 nM at AKT1 WT (setting [2]) and 1540 nM on AKT2 (setting [2]).

`Cc1ncccc1CN[C@H]1CCc2cc(-n3c(-c4cccnc4N)nc4ccc(-n5cccn5)nc43)ccc21` [Compound 140]: the results for the IC50 at AKT1 WT (setting [1]) and on AKT2 (setting [1]) were 31.5 nM and 576 nM, respectively.

As for `Nc1ncccc1-c1nc2ccc(-n3nccn3)nc2n1-c1ccc2c(c1)CC[C@@H]2NC(=O)c1ccc(CO)nc1` [Compound 490], the IC50 on AKT1 WT (setting [2]) was determined as 74.3 nM; on AKT2 (setting [2]) it was 3200 nM.

Consider `CN1CC(c2cn([C@H]3CCc4cc(-n5c(-c6cccnc6N)nc6ccc(-n7cccn7)nc65)ccc43)nn2)C1` [Compound 251], for which the figures for the 50% inhibitory concentration (IC50) on AKT1 WT (setting [1]) and on AKT2 (setting [1]) were 363 nM and 5810 nM, respectively.

Take `CN1CC(Oc2cc(C(=O)N[C@H]3CCc4cc(-n5c(-c6cccnc6N)nc6ccc(-n7cccn7)nc65)ccc43)ccn2)C1` [Compound 179]: the results for the IC50 on AKT1 WT (setting [1]) and at AKT2 (setting [1]) were 80 nM and 1270 nM, respectively.

As to `Cc1ncccc1C(=O)N[C@@H]1c2ccc(-n3c(-c4cccnc4N)nc4ccc(-n5cccn5)nc43)cc2CC1(F)F` [Compound 187], the IC50 at AKT1 WT (setting [1]) turned out to be 6.73 nM; on AKT2 (setting [1]) it was 21.3 nM.

As for `CN1CC(C#Cc2ccc3nc(-c4cccnc4N)n(-c4ccc5c(c4)CC[C@@H]5NC(=O)c4ccc(C(F)F)nc4)c3n2)C1` [Compound 411, (S)—N-(5-(2-(2-aminopyridin-3-yl)-5-((1-methylazetidin-3-yl)ethynyl)-3H-imidazo[4,5-b]pyridin-3-yl)-2,3-dihydro-1H-inden-1-yl)-6-(difluoromethyl)nicotinamide], the concentration for half-maximal inhibition (IC50) on AKT1 WT (setting [2]) is 976 nM; at AKT2 (setting [2]), more than 10000 nM.

As for `Cc1ncc(C(=O)N[C@H]2CCc3cc(-n4c(-c5cccnc5N)nc5ccc(-n6cccn6)nc54)ccc32)cn1` [Compound 143], the results for the IC50 on AKT1 WT (setting [1]) and on AKT2 (setting [1]) were 24.9 nM and 138 nM, respectively.

For `Nc1ncccc1-c1nc2ccc(-n3cccn3)nc2n1-c1ccc2c(c1)CC[C@@H]2NC(=O)c1cnc(O)c(F)c1` [Compound 296], the IC50 is 56.2 nM at AKT1 WT (setting [1]) and 660 nM on AKT2 (setting [1]).

In the case of `CSc1ccn(-c2ccc3nc(-c4cccnc4N)n(-c4ccc5c(c4)CC[C@@H]5NC4CCN(C(=O)C5CC5)CC4)c3n2)n1` [Compound 518], the IC50 at AKT1 WT (setting [2]) worked out at 32 nM; on AKT2 (setting [2]), 1290 nM.

As to `Nc1ncccc1-c1nc2ccc(-n3cccn3)nc2n1-c1ccc2c(c1)CC[C@@H]2NC(=O)c1cccnc1CO` [Compound 152, (S)—N-(5-(2-(2-aminopyridin-3-yl)-5-(1H-pyrazol-1-yl)-3H-imidazo[4,5-b]pyridin-3-yl)-2,3-dihydro-1H-inden-1-yl)-2-(hydroxymethyl)nicotinamide], the IC50 at AKT1 WT (setting [1]) came out at 61.7 nM; on AKT2 (setting [1]), 984 nM.

Regarding `Nc1ncccc1-c1nc2ccc(-n3ccc(NC4CC4)n3)nc2n1-c1ccc2c(c1)CC[C@@H]2NC1CCN(C(=O)C2CC2)CC1` [Compound 599], the IC50 on AKT1 WT (setting [2]) stood at 25.4 nM; on AKT2 (setting [2]), 1280 nM.

As for `Nc1ncccc1-c1nc2ccc(C#C[C@@H]3CCO3)nc2n1-c1ccc2c(c1)CC[C@@H]2NC(=O)c1ccc(C(F)F)nc1` [Compound 454], the IC50 at AKT1 WT (setting [2]) is 37.5 nM; at AKT2 (setting [2]), more than 10000 nM.

For `COc1cc(C(=O)N[C@H]2CCc3cc(-n4c(-c5cccnc5N)nc5ccc(-n6cccn6)nc54)ccc32)nn1C` [Compound 216], the results for the 50% inhibitory concentration (IC50) on AKT1 WT (setting [1]) and on AKT2 (setting [1]) were 58.4 nM and 1390 nM, respectively.

Consider `COCc1ncccc1C(=O)N[C@H]1CCc2cc(-n3c(-c4cccnc4N)nc4ccc(-n5cccn5)nc43)ccc21` [Compound 149], for which the IC50 is 50.3 nM at AKT1 WT (setting [1]) and 1580 nM on AKT2 (setting [1]).

`CNC(=O)c1ccc(C(=O)N[C@H]2CCc3cc(-n4c(-c5cccnc5N)nc5ccc(-n6cccn6)nc54)ccc32)cc1` [Compound 256]: the half-inhibitory concentration (IC50) at AKT1 WT (setting [1]) was 5.19 nM; on AKT2 (setting [1]) it was 73.8 nM.

Take `Nc1ncc(C(=O)N[C@H]2CCc3cc(-n4c(-c5cccnc5N)nc5ccc(-n6cccn6)nc54)ccc32)cc1F` [Compound 298]: the half-inhibitory concentration (IC50) at AKT1 WT (setting [1]) was 7.16 nM; at AKT2 (setting [1]) it was 51.6 nM.

Turning to `Cc1ccc2nc(-c3cccnc3N)n(-c3ccc4c(c3)CC[C@@H]4NC(=O)c3ccc(C(F)F)nc3)c2n1` [Compound 146], the 50% inhibitory concentration (IC50) was 508 nM at AKT1 WT (setting [1]) and more than 10000 nM at AKT2 (setting [1]).

As to `Cn1nccc1Cc1nncn1[C@H]1CCc2cc(-n3c(-c4cccnc4N)nc4ccc(-n5cccn5)nc43)ccc21` [Compound 222], the concentration for half-maximal inhibition (IC50) at AKT1 WT (setting [1]) came out at 146 nM; at AKT2 (setting [1]), 1400 nM.

For `CN(C)Cc1ccc(C(=O)N[C@H]2CCc3cc(-n4c(-c5cccnc5N)nc5ccc(-n6cccn6)nc54)ccc32)cn1` [Compound 85], the IC50 worked out at 36.3 nM on AKT1 WT (setting [1]) and 169 nM at AKT2 (setting [1]).

On to `Nc1ncccc1-c1nc2ccc(-n3cccn3)nc2n1-c1ccc2c(c1)CC[C@@H]2NC(=O)c1cc(F)c2[nH]ncc2c1` [Compound 261], for which the IC50 on AKT1 WT (setting [1]) is 4.75 nM; on AKT2 (setting [1]), 46.7 nM.

On to `Cc1cc2c(=O)n([C@H]3CCc4cc(-n5c(-c6cccnc6N)nc6ccc(-n7cccn7)nc65)ccc43)cnc2cn1` [Compound 81, (S)-3-(5-(2-(2-aminopyridin-3-yl)-5-(1H-pyrazol-1-yl)-3H-imidazo[4,5-b]pyridin-3-yl)-2,3-dihydro-1H-inden-1-yl)-6-methylpyrido[3,4-d]pyrimidin-4(3H)-one], for which the concentration for half-maximal inhibition (IC50) amounted to 121 nM on AKT1 WT (setting [1]) and 2900 nM on AKT2 (setting [1]).

`COCCN(C)[C@H]1CCc2cc(-n3c(-c4cccnc4N)nc4ccc(-n5cccn5)nc43)ccc21` [Compound 457]: the concentration for half-maximal inhibition (IC50) on AKT1 WT (setting [2]) came to 235 nM; at AKT2 (setting [2]) it was 6740 nM.

For `Nc1ncccc1-c1nc2ccc(-n3nccn3)nc2n1-c1ccc2c(c1)CC[C@@H]2NC(=O)c1cnc(C(F)(F)F)s1` [Compound 526], the IC50 is 20.2 nM at AKT1 WT (setting [2]) and 1260 nM on AKT2 (setting [2]).

As for `Nc1ncccc1-c1nc2ccc(-n3nccn3)nc2n1-c1ccc2c(c1)CC[C@@H]2n1cc(C2CC2)nn1` [Compound 352], the IC50 at AKT1 WT (setting [1]) worked out at 141 nM; on AKT2 (setting [1]), 4290 nM.

`Cc1ccc(C(=O)N[C@H]2CCc3cc(-n4c(-c5cccnc5N)nc5ccc(-n6cnc(C(F)F)n6)nc54)ccc32)cn1` [Compound 430]: the values for the IC50 on AKT1 WT (setting [2]) and at AKT2 (setting [2]) were 83.5 nM and 2490 nM, respectively.

For the compound `CC#Cc1cc(C(=O)N[C@H]2CCc3cc(-n4c(-c5cccnc5N)nc5ccc(-n6cccn6)nc54)ccc32)ccn1` [Compound 171, (S)—N-(5-(2-(2-aminopyridin-3-yl)-5-(1H-pyrazol-1-yl)-3H-imidazo[4,5-b]pyridin-3-yl)-2,3-dihydro-1H-inden-1-yl)-2-(prop-1-yn-1-yl)isonicotinamide], the 50% inhibitory concentration (IC50) at AKT1 WT (setting [1]) was determined as 7.74 nM; at AKT2 (setting [1]) it was 82.9 nM.
